Source: ChEMBL document CHEMBL4665642, “Anticancer profile of newly synthesized BRAF inhibitors possess 5-(pyrimidin-4-yl)imidazo[2,1-b]thiazole scaffold” (Bioorg Med Chem, 2019)

Experiments:
Format in all cases: functional
Settings in all cases: read-out: Activity
[1] = test system: MDA-MB-231; test: Cytotoxicity against human MDA-MB-231 cells assessed as cell viability at 10 uM incubated for 48 hrs by sulforhodamine B assay relative to control
[2] = test system: SK-MEL-2; test: Cytotoxicity against human SK-MEL-2 cells assessed as cell viability at 10 uM incubated for 48 hrs by sulforhodamine B assay relative to control
[3] = test system: UO-31; test: Cytotoxicity against human UO-31 cells assessed as cell viability at 10 uM incubated for 48 hrs by sulforhodamine B assay relative to control
[4] = test system: Hs-578T; test: Cytotoxicity against human HS-578T cells assessed as cell viability at 10 uM incubated for 48 hrs by sulforhodamine B assay relative to control
[5] = test system: NCI-H226; test: Cytotoxicity against human NCI-H226 cells assessed as cell viability at 10 uM incubated for 48 hrs by sulforhodamine B assay relative to control
[6] = test system: UACC-257; test: Cytotoxicity against human UACC-257 cells assessed as cell viability at 10 uM incubated for 48 hrs by sulforhodamine B assay relative to control
[7] = test system: NCI-H322M; test: Cytotoxicity against human NCI-H322M cells assessed as cell viability at 10 uM incubated for 48 hrs by sulforhodamine B assay relative to control
[8] = test system: OVCAR-8; test: Cytotoxicity against human OVCAR-8 cells assessed as cell viability at 10 uM incubated for 48 hrs by sulforhodamine B assay relative to control
[9] = test system: LOX IMVI; test: Cytotoxicity against human LOX IMVI cells assessed as cell viability at 10 uM incubated for 48 hrs by sulforhodamine B assay relative to control
[10] = test system: RXF 393; test: Cytotoxicity against human RXF 393 cells assessed as cell viability at 10 uM incubated for 48 hrs by sulforhodamine B assay relative to control
[11] = test system: HCT-15; test: Cytotoxicity against human HCT-15 cells assessed as cell viability at 10 uM incubated for 48 hrs by sulforhodamine B assay relative to control
[12] = test system: RPMI-8226; test: Cytotoxicity against human RPMI-8226 cells assessed as cell viability at 10 uM incubated for 48 hrs by sulforhodamine B assay relative to control
[13] = test system: SF-268; test: Cytotoxicity against human SF-268 cells assessed as cell viability at 10 uM incubated for 48 hrs by sulforhodamine B assay relative to control
[14] = test system: SW-620; test: Cytotoxicity against human SW-620 cells assessed as cell viability at 10 uM incubated for 48 hrs by sulforhodamine B assay relative to control
[15] = test system: M14; test: Cytotoxicity against human M14 cells assessed as cell viability at 10 uM incubated for 48 hrs by sulforhodamine B assay relative to control
[16] = test system: CAKI-1; test: Cytotoxicity against human CAKI-1 cells assessed as cell viability at 10 uM incubated for 48 hrs by sulforhodamine B assay relative to control
[17] = test system: HCT-116; test: Cytotoxicity against human HCT-116 cells assessed as cell viability at 10 uM incubated for 48 hrs by sulforhodamine B assay relative to control
[18] = test system: MDA-MB-435; test: Cytotoxicity against human MDA-MB-435 cells assessed as cell viability at 10 uM incubated for 48 hrs by sulforhodamine B assay relative to control
[19] = test system: EKVX; test: Cytotoxicity against human EKVX cells assessed as cell viability at 10 uM incubated for 48 hrs by sulforhodamine B assay relative to control
[20] = test system: SK-MEL-5; test: Cytotoxicity against human SK-MEL-5 cells assessed as cell viability at 10 uM incubated for 48 hrs by sulforhodamine B assay relative to control
[21] = test system: HOP-62; test: Cytotoxicity against human HOP-62 cells assessed as cell viability at 10 uM incubated for 48 hrs by sulforhodamine B assay relative to control
[22] = test system: HCC 2998; test: Cytotoxicity against human HCC 2998 cells assessed as cell viability at 10 uM incubated for 48 hrs by sulforhodamine B assay relative to control
[23] = test system: SF-295; test: Cytotoxicity against human SF-295 cells assessed as cell viability at 10 uM incubated for 48 hrs by sulforhodamine B assay relative to control
[24] = test system: OVCAR-5; test: Cytotoxicity against human OVCAR-5 cells assessed as cell viability at 10 uM incubated for 48 hrs by sulforhodamine B assay relative to control
[25] = test system: A549; test: Cytotoxicity against human A549 cells assessed as cell viability at 10 uM incubated for 48 hrs by sulforhodamine B assay relative to control
[26] = test system: SF-539; test: Cytotoxicity against human SF-539 cells assessed as cell viability at 10 uM incubated for 48 hrs by sulforhodamine B assay relative to control
[27] = test system: NCI/ADR-RES; test: Cytotoxicity against human NCI/ADR-RES cells assessed as cell viability at 10 uM incubated for 48 hrs by sulforhodamine B assay relative to control
[28] = test system: U-251; test: Cytotoxicity against human U-251 cells assessed as cell viability at 10 uM incubated for 48 hrs by sulforhodamine B assay relative to control
[29] = test system: SNB-75; test: Cytotoxicity against human SNB-75 cells assessed as cell viability at 10 uM incubated for 48 hrs by sulforhodamine B assay relative to control
[30] = test system: IGROV-1; test: Cytotoxicity against human IGROV-1 cells assessed as cell viability at 10 uM incubated for 48 hrs by sulforhodamine B assay relative to control
[31] = test system: DU-145; test: Cytotoxicity against human DU-145 cells assessed as cell viability at 10 uM incubated for 48 hrs by sulforhodamine B assay relative to control
[32] = test system: HOP-92; test: Cytotoxicity against human HOP-92 cells assessed as cell viability at 10 uM incubated for 48 hrs by sulforhodamine B assay relative to control
[33] = test system: BT-549; test: Cytotoxicity against human BT-549 cells assessed as cell viability at 10 uM incubated for 48 hrs by sulforhodamine B assay relative to control
[34] = test system: PC-3; test: Cytotoxicity against human PC-3 cells assessed as cell viability at 10 uM incubated for 48 hrs by sulforhodamine B assay relative to control
[35] = test system: SNB-19; test: Cytotoxicity against human SNB-19 cells assessed as cell viability at 10 uM incubated for 48 hrs by sulforhodamine B assay relative to control
[36] = test system: NCI-H23; test: Cytotoxicity against human NCI-H23 cells assessed as cell viability at 10 uM incubated for 48 hrs by sulforhodamine B assay relative to control
[37] = test system: MCF7; test: Cytotoxicity against human MCF7 cells assessed as cell viability at 10 uM incubated for 48 hrs by sulforhodamine B assay relative to control
[38] = test system: NCI-H522; test: Cytotoxicity against human NCI-H522 cells assessed as cell viability at 10 uM incubated for 48 hrs by sulforhodamine B assay relative to control
[39] = test system: TK-10; test: Cytotoxicity against human TK-10 cells assessed as cell viability at 10 uM incubated for 48 hrs by sulforhodamine B assay relative to control
[40] = test system: SR; test: Cytotoxicity against human SR cells assessed as cell viability at 10 uM incubated for 48 hrs by sulforhodamine B assay relative to control
[41] = test system: Malme-3M; test: Cytotoxicity against human Malme-3M cells assessed as cell viability at 10 uM incubated for 48 hrs by sulforhodamine B assay relative to control

O=S(=O)(NCCCNc1nccc(-c2c(-c3cccc(F)c3)nc3sccn23)n1)c1ccc(Cl)cc1
viability at 10 µM [1]: 77.9%
viability at 10 µM [2]: 79.9%
viability at 10 µM [3]: 41.8%
viability at 10 µM [4]: 94.6%
viability at 10 µM [5]: 46.9%
viability at 10 µM [6]: 103%
viability at 10 µM [7]: 93.2%
viability at 10 µM [8]: 50.2%
viability at 10 µM [9]: 60.3%
viability at 10 µM [10]: 99.6%
viability at 10 µM [11]: 49.6%
viability at 10 µM [12]: 55.3%
viability at 10 µM [13]: 76.3%
viability at 10 µM [14]: 104%
viability at 10 µM [15]: 66.1%
viability at 10 µM [16]: 63%
viability at 10 µM [17]: 64%
viability at 10 µM [18]: 53.1%
viability at 10 µM [19]: 75.4%
viability at 10 µM [20]: 40.9%
viability at 10 µM [21]: 102%
viability at 10 µM [22]: 123%
viability at 10 µM [23]: 87.1%
viability at 10 µM [24]: 125%
viability at 10 µM [25]: 66.9%
viability at 10 µM [26]: 99.3%
viability at 10 µM [27]: 67.4%
viability at 10 µM [28]: 90.2%
viability at 10 µM [29]: 102%
viability at 10 µM [30]: 42.7%
viability at 10 µM [31]: 78.2%
viability at 10 µM [32]: 85.7%
viability at 10 µM [33]: 85.4%
viability at 10 µM [34]: 52%
viability at 10 µM [35]: 93%
viability at 10 µM [36]: 86%
viability at 10 µM [37]: 61.7%
viability at 10 µM [38]: 57.4%
viability at 10 µM [39]: 99%
viability at 10 µM [40]: 92.9%
viability at 10 µM [41]: 107%

O=S(=O)(NCCCNc1nccc(-c2c(-c3cccc(F)c3)nc3sccn23)n1)c1ccc(C(F)(F)F)cc1
viability at 10 µM [1]: 96.5%
viability at 10 µM [2]: 89.9%
viability at 10 µM [3]: 57.9%
viability at 10 µM [4]: 83.5%
viability at 10 µM [5]: 77.5%
viability at 10 µM [6]: 110%
viability at 10 µM [7]: 104%
viability at 10 µM [8]: 75.7%
viability at 10 µM [9]: 86.7%
viability at 10 µM [10]: 94.7%
viability at 10 µM [11]: 78.8%
viability at 10 µM [12]: 87.4%
viability at 10 µM [13]: 75.6%
viability at 10 µM [14]: 115%
viability at 10 µM [15]: 92.4%
viability at 10 µM [16]: 67.9%
viability at 10 µM [17]: 86.2%
viability at 10 µM [18]: 74.2%
viability at 10 µM [19]: 87.3%
viability at 10 µM [20]: 91.1%
viability at 10 µM [21]: 104%
viability at 10 µM [22]: 125%
viability at 10 µM [23]: 104%
viability at 10 µM [24]: 129%
viability at 10 µM [25]: 83.5%
viability at 10 µM [26]: 110%
viability at 10 µM [27]: 87.2%
viability at 10 µM [28]: 95.1%
viability at 10 µM [29]: 86.4%
viability at 10 µM [30]: 66.2%
viability at 10 µM [31]: 94.7%
viability at 10 µM [32]: 94.8%
viability at 10 µM [33]: 99.8%
viability at 10 µM [34]: 67.8%
viability at 10 µM [35]: 96.1%
viability at 10 µM [36]: 90%
viability at 10 µM [37]: 82.1%
viability at 10 µM [38]: 85.5%
viability at 10 µM [39]: 107%
viability at 10 µM [40]: 109%
viability at 10 µM [41]: 127%
